Experiments:
[1] = system: Collagen-Induced Arthritis (CIA); experiment: Collagen-Induced Arthritis, ethyl esters (CIA-EE, Example 1): clinical arthritis severity and incidence; type: in vivo, Male DBA/1O1aHsd mice; details: for incidence of disease (clinical arthritis score greater than 0): day 45; for arthritis severity score as area under the curve (AUC): days 18-45, FIG. 2
Excerpt: The anti-arthritic activity of DHA, DPAn6, DHA/DPAn6 (DHA S-oil ratio) and DHA/EPA (fish oil ratio) ethyl esters (EE) in a chronic mouse model of inflammation, Collagen-Induced Arthritis (CIA), was studied.
(§1) Male DBA/1O1aHsd mice (3.5-4 weeks of age) were randomized by weight and enrolled in the study after a three day quarantine in which animals were fed the AlN-93G diet with a modified base fat: 1 part flax seed oil (flax), 9 parts hydrogenated coconut oil (HCOC) and 21 parts high-oleic safflower oil (HO-SAFF). 15 animals were enrolled per study group, with the exception of the No Disease control that had 4 animals. Study groups consisted of:
(§2) The appropriate ethyl esters were blended into the base diet to provide approximately 2500 and 5000 mg/kg polyunsaturated fatty acid (PUFA) per day. The human equivalent doses (HED) were approximately 12 g/day and 22 g/day, respectively. The 2500 mg/kg EE diets contained the following fat blend: 1 part flax, 12 parts HCOC and 23 parts HO-SAFF. The 5000 mg/kg EE diets contained a fat blend consisting of: 1 part flax, 5 parts HCOC and 20 parts HO-SAFF. All study diets provided a total of 7% fat. Animals were fed study diets for approximately 30 days prior to the first collagen injection at day 0 and remained on the diets until study termination (day 45). Animals in the No Disease control and Dexamethasone groups were fed the diet containing OA-EE. Following a second collagen injection on day 21, arthritis severity was scored daily. Blood samples were collected at day 21 and day 45. Joints, 6 per an animal, were collected for histology and pathology on day 45.
Data was analyzed and compared by one-way ANOVA using the Bonferroni post-test to compare treatment groups to respective placebo control and to make comparisons between treatment groups (GraphPad, Prism, Version 4.0). Effects were considered to be statistically significant at p<0.05.
Arthritis severity was assessed from day 18 to 45; a score of 0 represented an animal devoid of clinical arthritis symptoms and a score of 5 represented advanced clinical arthritis. Scores from 0-5 (most severe) were assigned to each digit on the fore and hind limbs based on erythema, swelling and mobility and the mean arthritis severity per animal was determined.
The incidence of disease was reduced in animals treated with DHA-EE (FIG. 3A/B). A clinical arthritis score greater than 0 was considered diseased. The incidence of disease at day 45 was 13% in animals treated with 2500 mg/kg DHA-EE, as compared to 100% disease incidence in OA-EE (placebo) control animals.

[2] = system: Collagen-Induced Arthritis (CIA); experiment: CIA-EE (Example 1): paw, knee and six-joint histopathology; type: in vivo, Male DBA/1O1aHsd mice; details: day 45, vs OA-EE placebo, FIG. 4
Excerpt: as §1, §2
Placebo-treated diseased animals had histopathology changes, consistent with those seen in type II collagen induced arthritis, in most joints, with scores ranging from normal to severe. Microscopic alteration included infiltration of synovium and periarticular tissue with neutrophils and mononuclear inflammatory cells (inflammation), marginal zone pannus and bone resorption and cartilage damage (proteoglycan loss, chondrocyte death and collagen matrix destruction). Four-paw, knee and joint parameters were assigned a quantitative score 0=normal, 1=minimal, 2=mild, 3=moderate, 4=marked, 5=severe and a total score was determined per animal.

Row | Compound | incidence of disease (clinical arthritis score greater than 0) ([1]; positive control, 0.1 mg/kg) [%] | arthritis severity score as area under the curve (AUC) ([1]; 2500 mg/kg, vs 2500 mg/kg OA-EE (placebo) control) | arthritis severity score as area under the curve (AUC) ([1]; 5000 mg/kg, vs 5000 mg/kg OA-EE (placebo) control) | incidence of disease (clinical arthritis score greater than 0) ([1]; 2500 mg/kg, FIG. 3A) [%] | knee histopathology parameters ([2]; 2500 mg/kg) | paw histopathology parameters (inflammation, pannus, cartilage damage, bone damage) ([2]; 2500 mg/kg) | knee histopathology parameters ([2]; 5000 mg/kg) | paw histopathology parameters (inflammation, pannus, cartilage damage, bone damage) ([2]; 5000 mg/kg)
1 | C[C@@H]1C[C@H]2[C@@H]3CCC4=CC(=O)C=C[C@]4(C)[C@@]3(F)[C@@H](O)C[C@]2(C)[C@@]1(O)C(=O)CO [Dexamethasone, reference compound] | 60 | – | – | – | – | – | – | –
2 | CCCCC/C=C\C/C=C\C/C=C\C/C=C\C/C=C\CCC(=O)OCC [DPAn6-EE, reference compound] | – | did not reduce arthritis | did not reduce arthritis | 100 | did not significantly improve | did not significantly affect | did not significantly improve | did not significantly affect

Source: patent US20130137767A1, “Methods and Compositions for Treating Arthritis with Docosahexaenoic Acid” (DSM IP ASSETS B.V., priority 2010, published 2013)
